Measured values from publication PMC9181938, “Fluorinated Analogues of Lepidilines A and C: Synthesis and Screening of Their Anticancer and Antiviral Activity” (Molecules, 2022).
Where two headings read alike, the source gives them in different places.

Assays:
[1] = test system: Human herpesvirus 5 (HCMV); assay: Antiviral screening at 10 µM, plaque reduction; type: cell-based; details: Human betaherpesvirus 5, antiviral screening, HCMV-infected cells, read-out: Cell line (viability %) HCMV
Method: Antiviral properties of compounds 1a, 1c, 1a[PF6], 1c[PF6], 9b[PF6], 9c[PF6], 10a–10d, 2a, and 2b were assessed against five viruses: Human herpesvirus 1 (HSV-1, VR-539), Human parainfluenza virus type 3 (HPIV-3, VR-93), Human adenovirus 5 (AdV5, VR-5), Human herpesvirus 5 (HCMV, VR-977), and Encephalomyocarditis virus (EMCV, VR-1479). Viruses were purchased from the American Type Culture Collection (ATCC, Manassas, VA, USA).
All tested compounds were dissolved in DMSO (dimethyl sulfoxide, Sigma-Aldrich, Darmstadt, Germany) and then suspended in Minimum Essential Medium (MEM; Sigma-Aldrich, Darmstadt, Germany) supplemented with 2% heat-inactivated fetal bovine serum (FBS; Sigma-Aldrich, Darmstadt, Germany), 2 mM L-glutamine (Sigma-Aldrich, Darmstadt, Germany), and 100 units/mL penicillin G with […] streptomycin (Sigma-Aldrich, Darmstadt, Germany).
Vero, LLC-MK2, NCTC clone 929, MRC-5, and HeLa cells were propagated in Minimum Essential Medium (MEM; Sigma-Aldrich, Darmstadt, Germany) supplemented with 10% heat-inactivated fetal bovine serum (FBS; Sigma-Aldrich, Darmstadt, Germany) and 100 units/mL penicillin G with […] streptomycin (Sigma-Aldrich, Darmstadt, Germany). Upon reaching 80–90% confluency, cells were harvested with 0.25% trypsin in 1 mM EDTA (Life Technologies, Warsaw, Poland) and seeded onto 96-well microplates at 2 × 10^5 cells/mL. After overnight incubation of cells at 37 °C in a humidified atmosphere containing 5% CO2, the culture medium was removed, and cells were inoculated with the respective virus solution in MEM supplemented with 2% FBS and antibiotics (HSV-1 MOI 0.005, 1000 virions/mL; HPIV-3 MOI 0.01, 2000 virions/mL; AdV5 MOI 0.005, 1000 virions/mL, EMCV MOI 0.005, 1000 virions/mL, HCMV 20 PFU (plaque forming units) per well). After a 1-h (HSV-1, HPIV-3, AdV5, and EMCV) or 2-h adsorption period (HCMV), the residual virus was removed, and the infected cells were further incubated with a 100 μL freshly prepared solution of tested compounds diluted with a maintenance medium supplemented with 2% FBS to obtain compound concentrations of 10 µM. The final concentration of DMSO in the medium was 0.1%. All experiments were carried out in triplicate. The cells monolayers were incubated with the compounds at 37 °C in a humidified atmosphere containing 5% CO2 until the typical cytopathic effect (CPE) was visible. Viral infection was evaluated by the MTT assay or plaque reduction assay (HCMV). After incubation with drugs, the cells were treated with 3-(4,5-dimethylthiazol-2-yl)-2,5-diphenyltetrazolium bromide dye solution (MTT, Sigma-Aldrich, Darmstadt, Germany) (25 μL, 5 mg/mL) for 2 h and lysed with solvent solution (100 μL) containing: DMF (Sigma-Aldrich, Darmstadt, Germany) (45 mL), SDS (Sigma-Aldrich, Darmstadt, Germany) (13.5 g), and distilled water (55 mL). After overnight incubation at 37 °C, the optical density at 550 nm and a reference wavelength of 670 nm were measured on a microplate spectrophotometer, Varioskan Lux (Thermo Fisher Scientific, Waltham, MA, USA). The number of HCMV plaques was counted under an inverted microscope Olympus IX73 (Olympus, Tokyo, Japan).

[2] = Cytotoxicity screening at 10 µM (MTT); type: cell-based, Human; details: human, HeLa cells, read-out: Cell line (viability %) HeLa
[3] = test system: Human parainfluenza virus type 3 (HPIV-3); assay: Antiviral activity assay (0.1–1000 µM), IC50; type: cell-based; details: Human respirovirus 3, Table S4, range 0.1-1000 µM, HPIV-3; read-out: IC50 (M) HPIV-3
How it was run: (§1)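 Confluent cell monolayers were infected (AdV5 and EMCV MOI 0.005, HPIV-3 MOI 0.01, 1-h adsorption; HCMV 20 PFU/well, 2-h adsorption), then incubated at 37 °C with compounds (0.1–1000 µM) in 2% FBS MEM until CPE appeared. Infection was read by MTT or, for HCMV, plaque counting. IC50 was the concentration halving plaques versus untreated infected controls.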

[4] = test system: Encephalomyocarditis virus (EMCV); assay: Antiviral activity assay (0.1–1000 µM), IC50; type: cell-based; details: Cardiovirus A, Table S4, range 0.1-1000 µM, read-out: IC50 (M) EMCV
How it was run: as §1

[5] = test system: Human adenovirus 5 (AdV5); assay: Antiviral activity assay (0.1–1000 µM), IC50; type: cell-based; details: Human mastadenovirus C; Table S4, range 0.1-1000 µM, AdV5; read-out: IC50 (M) AdV5
How it was run: as §1

[6] = Cytotoxicity MTT assay (0.1–1000 µM), CC50; type: cell-based, Mus musculus; details: Mus musculus, NCTC clone 929 cells, Table S2, range 0.1-1000 µM, NCTC clone 929; read-out: Cell line (CC50 M) NCTC clone 929
[7] = Cytotoxicity MTT assay (0.1–1000 µM), CC50; type: cell-based, Macaca mulatta; details: Macaca mulatta, LLC-MK2 cells

Cc1c(C)n(Cc2ccccc2)c(=S)n1Cc1ccccc1 [Compound 10a]
viability at 10 µM [1]: 3.6% | viability at 48 h, 10 µM [2]: 61.1% | IC50 [3]: > 1.62e-05 M | IC50 [4]: > 4.6e-05 M | IC50 [5]: > 1.69e-05 M | CC50 at 48 h [6]: 46 ± 6.93 µM | CC50 at 48 h ([7]; LLC-MK2, MTT, 48 h, read-out: CC50 Normal Cell Lines LLC-MK2): < 20 µM | CC50 at 48 h ([7]; Table S2, range 0.1-1000 µM, LLC-MK2, read-out: Cell line (CC50 M) LLC-MK2): 16.2 ± 3.75 µM
